Experimental data from ChEMBL document CHEMBL4840353, “Investigation on the solid-phase synthesis of silybin prodrugs and their timed-release” (Bioorg Med Chem, 2021).
In brackets after ≈: the same amount, converted by molar mass.

Legend:
[1] = Antioxidant activity assessed as DPPH radical scavenging activity measured for 60 mins by spectrophotometric analysis; format: functional
[2] = Aqueous solubility of the compound; format: physicochemical; details: buffer
[3] = Stability in simulated intestinal fluid at pH 6.8 assessed as half life at 1 mM by HPLC analysis; format: ADME
[4] = Prodrug conversion assessed as RNase (unknown origin)-mediated drug release by measuring half life in simulated intestinal fluid at 1 mM by UV/Vis detector based HPLC analysis; format: ADME; details: human, simulated gi fluid, 1000 µM
[5] = Stability in alkaline phosphatase buffer at pH 7.4 assessed as drug degradation at 1 mM measured after 48 hrs by HPLC analysis; format: ADME; details: read-out: Drug degradation
[6] = Stability in simulated gastric fluid at pH 1.1 assessed as drug degradation at 1 mM measured after 24 hrs by HPLC analysis; format: ADME; details: read-out: Drug degradation
[7] = Prodrug conversion assessed as RNase (unknown origin) -mediated drug release by measuring half life in imidazole buffer at 1 mM by UV/Vis detector based HPLC analysis; format: ADME; details: human, 1000 µM
SH-SY5Y = assay: Cytotoxicity against human differentiated SH-SY5Y cells assessed as reduction in cell viability at 2 to 50 uM measured after 48 hrs by MTT assay; format: cell-based; details: dose 2-50 µM

Row | Compound | EC50 [1] [µM] | solubility ([2]; read-out: solubility) [µM] | half-life at 1000 µM [3] [h] | t1/2 [4] [h] | degraded at 48 h, 1000 µM [5] [%] | degraded at 24 h, 1000 µM [6] [%] | t1/2 [7] [h] | Activity (SH-SY5Y) | solubility [2]
1 | COc1cc(C2Oc3cc([C@H]4Oc5cc(O)cc(O)c5C(=O)[C@@H]4O)ccc3OC2CO)ccc1O (stereo not given in full) [SILIBININ] | 620 | 1 (≈ 0.482 µg/mL) |  |  |  |  |  |  | 
2 | COc1cc([C@@H]2Oc3cc([C@H]4Oc5cc(O)cc(O)c5C(=O)[C@@H]4O)ccc3O[C@H]2COP(=O)(O)O[C@H]2[C@@H](O)[C@H](n3cnc4c(N)ncnc43)O[C@@H]2CO)ccc1O | 580 |  | > 24 | > 48 | < 2 | < 5 | > 48 | Non-Toxic | Soluble
3 | COc1cc([C@H]2Oc3cc([C@H]4Oc5cc(O)cc(O)c5C(=O)[C@@H]4O)ccc3O[C@@H]2COP(=O)(O)O[C@H]2[C@@H](O)[C@H](n3ccc(=O)[nH]c3=O)O[C@@H]2CO)ccc1O | 570 |  | > 24 | 13 | < 2 | 27 | 1.45 | Non-Toxic | Soluble
4 | COc1cc([C@@H]2Oc3cc([C@H]4Oc5cc(O)cc(O)c5C(=O)[C@@H]4O)ccc3O[C@H]2COP(=O)(O)O[C@H]2[C@@H](O)[C@H](n3ccc(=O)[nH]c3=O)O[C@@H]2CO)ccc1O | 530 |  | > 24 | 11 | < 2 | 27 | 0.833 | Non-Toxic | Soluble
5 | Cc1c(C)c2c(c(C)c1O)CCC(C)(C(=O)O)O2 (stereo not given) [TROLOX] | 28 |  |  |  |  |  |  |  | 
6 | COc1cc(C2Oc3cc([C@H]4Oc5cc(O)cc(O)c5C(=O)[C@@H]4O)ccc3OC2COP(=O)(O)O[C@H]2[C@@H](O)[C@H](n3ccc(=O)[nH]c3=O)O[C@@H]2CO)ccc1O (stereo not given in full) | 490 |  | > 24 | 20 | < 2 | 27 | 1.67 | Non-Toxic | Soluble
7 | COc1cc([C@H]2Oc3cc([C@H]4Oc5cc(O)cc(O)c5C(=O)[C@@H]4O)ccc3O[C@@H]2COP(=O)(O)O[C@H]2[C@@H](O)[C@H](n3cnc4c(N)ncnc43)O[C@@H]2CO)ccc1O | 630 |  | > 24 | > 48 | < 2 | < 5 | > 48 | Non-Toxic | Soluble
8 | COc1cc(C2Oc3cc([C@H]4Oc5cc(O)cc(O)c5C(=O)[C@@H]4O)ccc3OC2COP(=O)(O)O[C@H]2[C@@H](O)[C@H](n3cnc4c(N)ncnc43)O[C@@H]2CO)ccc1O (stereo not given in full) | 620 |  | > 24 | > 48 | < 2 | < 5 | > 48 | Non-Toxic | Soluble
9 | COc1cc([C@@H]2Oc3cc([C@H]4Oc5cc(O)cc(O)c5C(=O)[C@@H]4O)ccc3O[C@H]2CO)ccc1O [SILYBIN B] | 580 |  |  |  |  |  |  | Non-Toxic | 
10 | COc1cc([C@H]2Oc3cc([C@H]4Oc5cc(O)cc(O)c5C(=O)[C@@H]4O)ccc3O[C@@H]2CO)ccc1O [SILYBIN A] | 360 |  |  |  |  |  |  | Non-Toxic | 
